Assay results taken from publication PMC10252614 (International Journal of Molecular Sciences, 2023).

Assays:
hMAO-A = target: T1, hMAO-A (Homo sapiens, UniProt P21397); assay: hMAO-A inhibition mechanism: dialysis reversibility and kinetics; assay type: biochemical; conditions: non-linear regression according to Michaelis–Menten
T1 construct: purchased Merck (Prague, Czech Republic)
T1 sequence (P21397 1-527): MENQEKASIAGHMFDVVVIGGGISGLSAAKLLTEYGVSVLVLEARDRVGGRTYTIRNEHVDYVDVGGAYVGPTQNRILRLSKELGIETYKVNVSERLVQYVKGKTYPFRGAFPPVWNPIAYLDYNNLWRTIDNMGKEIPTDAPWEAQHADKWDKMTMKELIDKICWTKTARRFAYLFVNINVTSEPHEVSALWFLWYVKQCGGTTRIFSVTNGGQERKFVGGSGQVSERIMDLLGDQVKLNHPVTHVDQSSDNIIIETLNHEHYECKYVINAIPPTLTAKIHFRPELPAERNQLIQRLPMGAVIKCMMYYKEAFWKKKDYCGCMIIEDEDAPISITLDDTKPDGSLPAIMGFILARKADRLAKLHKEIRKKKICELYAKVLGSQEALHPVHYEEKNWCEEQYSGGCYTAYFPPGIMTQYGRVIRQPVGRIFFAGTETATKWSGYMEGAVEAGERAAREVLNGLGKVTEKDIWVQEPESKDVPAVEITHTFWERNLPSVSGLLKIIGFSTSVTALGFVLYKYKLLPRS
Method: The MAOs were subsequently incubated with selected compounds at different concentrations and evaluated by non-linear regression according to Michaelis–Menten (Figure 5).
Inhibition mechanism was determined by non-linear regression and the double reciprocal method by Lineweaver–Burk using GraphPad Prism 8.2 software. […] The recovery of enzyme activity was determined using the above-mentioned protocol.

SH-SY5Y cells = assay: intracellular ATP, luciferase luminescence assay; assay type: cell-based, human; conditions: 100 µM, 24 h
Method: Thus, SH-SY5Y cells were incubated with II-6h and III-6a (10 and 100 µM) for 24 h. After the treatment, dehydrogenase activity, glutathione levels, nuclear condensation and fragmentation, and ATP levels were measured (Figure 7). […] The decrease in dehydrogenase activity was found in cells treated with 100 µM II-6h (p < 0.001).
The quantification of intracellular ATP was performed using luciferase luminescence assay. After cell treatment with II-6h and III-6a (10–100 µM), the culture medium was replaced with 100 µL of cold water for cell lysis, incubated for 5 min and centrifuged (4800× g; 5 min; 4 °C). To detect intracellular ATP concentration, 90 µL of the reaction solution was added to 10 µL of a lysate. The reaction solution included 20× reaction buffer (500 mM Tricine buffer, pH 7.8; 10 mM MgSO4, 2 mM Na2EDTA), 5 mg/mL luciferase; 10 mM D-luciferin; 0.1 M DTT and dH2O. Luminometric measurement was performed at Em = 550 nm using SPARK microplate reader (Tecan, Grödig, Austria). The intracellular ATP levels were expressed as the percentage of total ATP level relative to that in the control cells (control = 100%) as mean ± SEM.

Q: Which “mode of hMAO-A inhibition” value (hMAO-A) does the source give for `C#CCN(C)c1nc(NC2CCCCC2)c2ccccc2n1` [I-6h, N4-cyclohexyl-N2-methyl-N2-(prop-2-yn-1-yl)quinazoline-2,4-diamine] here?
A: Its value is “mixed mode inhibition”.

Q: How did the “intracellular ATP levels (in words)” value (SH-SY5Y cells) turn out when `C#CCN(C)c1nc(NC2CCCCC2)c2ccc(Cl)cc2n1` [II-6h, 7-chloro-N4-cyclohexyl-N2-methyl-N2-(prop-2-yn-1-yl)quinazoline-2,4-diamine] was run?
A: The value was “partial exhaustion of ATP”.

Q: For `C#CCN(C)c1nc(N)c2cc(OC)ccc2n1` [III-6a, 6-methoxy-N2-methyl-N2-(prop-2-yn-1-yl)quinazoline-2,4-diamine], which “mode of hMAO-A inhibition” value (hMAO-A) is on record?
A: Its value is “mixed mode inhibition”.
